Measurements taken from PubChem BioAssay AID2202557 (NIEHS Division of Translational Toxicology (DTT)).
The source made the active and inactive calls. No rule for the calls is given here.

Test system: in vitro micronucleus assay, mammalian cells
Assay: In vitro micronucleus assay, summary data

SMILES	outcome
CCCCCCOc1ccc(O)cc1	active; positive
NCP(=O)(O)O	inactive; negative
[Cl][In]([Cl])[Cl]	active; positive
c1cc[n+]2c(c1)-c1cccc[n+]1CC2	active; positive
CCOC(=O)C1=C[C@]2(CC)CCCN3CCc4c(n1c1ccccc41)[C@@H]32	active; positive
CCc1cccc(C)c1N(C(=O)CCl)C(C)COC (stereo unspecified)	active; positive
